# Test results as given in patent publication US11832638B2, “N-acyl derivatives of gamma amino-butyric acid and beta alanine as food flavouring compounds” (GIVAUDAN SA, priority 2012, dated 2023).
# What was measured:
# [1] = Tasting in low fat mayonnaise; details: 0.5 ppm in low fat mayonnaise (27% fat)
# Description: The following formulations were prepared and tasted by trained panelists.
# Fat levels between 10-80%
# Low fat Mayonnaise (27% Fat)
# Tasting of baked pizza = details: 0.5 PPM in the crust and 0.5 PPM in the tomato sauce, baked in hot air oven at 200 degrees Celsius
# Source text: Differentiator high temperature 100-250 degrees Celsius in hot air baking process
# C18:2-gaba @ 0.5 PPM in the crust and @ 0.5 PPM in the tomato sauce
# The pizza was topped off with cheese and baked in a hot air oven @ 200 degrees Celsius
# [2] = Vanilla flavoured milk 3.0% fat; details: 2 ppm, 4% sugar, vanillin 10 ppm, vanilla extract 0.03%
# Description: Vanilla Flavoured Milk 3.0% Fat
# In a 3% fat milk drink, sweetened with 4% sucrose by weight, flavoured with Vaniline @ 10 ppm and a Vanilla extract @ 0.03% C18:2-gaba, was added at 0.5 or 2 ppm.
# (§1) Samples were evaluated by expert tasters. Tasters were asked to describe the samples focusing on authentic taste, mouthfeel, fullness, salivation, sweetness, juiciness, richness, long lastingness and fattiness.
# Base: Milk 3% fat, 4% sugar, vanillin 10 ppm, vanilla extract 0.03%
# [3] = Chocolate milk with different fat content
# Description: Chocolate Milk With Different Fat Content
# In a chocolate milk 1.8% and 3% fat C18:2-gaba was added at 0.5 and 1 ppm.
# as §1
# Test on Heineken beer = details: 0.5 ppm
# Description: In Heineken beer (Market Product) C18:2-gaba was added at 0.5 ppm.
# Samples were evaluated by expert tasters. Tasters were asked to describe the samples focusing on authentic taste, alcohol impact, malt taste, hop taste, mouthfeel, fullness, salivation, sweetness, bitterness, richness, long lastingness and fattiness.
# [4] = Calve 60% reduced fat mayonnaise; details: 0.5 ppm, Calve mayonnaise 60% reduced fat
# Source text: Calve 60% Reduced Fat Mayonnaise
# Base is Calve Mayonnaise 60% reduced fat (market Product)
compound,measurement,setting,value
CCCCC/C=C\C/C=C\CCCCCCCC(=O)NCCCC(=O)O [C18:2-gaba],tasting result (trained panelists),[1],"creamy, thick mouthfeel with a full fat impression"
same,"taste of crust, tomato and aftertaste of pizza",Tasting of baked pizza,"less dry, more succulent and the tomato was richer, sweeter and the total lingering aftertaste was very rich and pleasant"
same,description by expert tasters,[2],"beany, fatty, authentic, sweet"
same,description by expert tasters,"[3]; 0.5 ppm, chocolate milk 1.8% fat","stronger cocoa note, more chocolate vs cocoa"
same,description by expert tasters,"[3]; 0.5 ppm, chocolate milk 3% fat","very creamy, enhanced cocoa note"
same,description by expert tasters,"[3]; 1 ppm, chocolate milk 1.8% fat","very creamy, chocolate, long-lasting creamy and chocolate taste"
same,description by expert tasters,"[3]; 1 ppm, chocolate milk 3% fat","very creamy, lasting, sweet, almost taste like chocolate ice cream"
same,description by expert tasters,Test on Heineken beer,"more hoppy, more bitter, more malt and stronger alcohol impact"
same,taste description,[4],"full, rich , creamy, more egg yolk taste"
